Patent US20150065436A1, “INHIBITING INTERACTION BETWEEN HIF-1ALPHA AND p300/CBP WITH HYDROGEN BOND SURROGATE-BASED HELICES” (UNIVERSITY OF SOUTHERN CALIFORNIA, priority 2013, published 2015)

Experiments:
[1] = system: 786-O renal cell carcinoma tumors
Experimental: Mice (n=6) were inoculated with 786-O cells (2×10^6 cells) into the right flank and allowed to grow tumors for 21 days. […] In parallel, a control group (n=6) received injections of PBS. Tumor sizes were measured on Days 2, 3, 4, 6, 8, 11, 13, 16, 20, 25, 28, and 33. […] At a conclusion of the study, mice were injected intraperitoneally with the near-infrared dye IR-783 contrast agent and the tumors were imaged using Xenogen IVIS 200 small animal imager.
The CrTac:NCr-Foxn1^nu mouse (Taconic, Inc.) was used for efficacy studies. […] Measurable tumors (˜100 mm^3) grew in as little as 2-3 weeks after the inoculation of 2×10^6 cells into the flank of the mice. […] Tumor sizes were measured in accordance with literature recommendations.

p300-CH1 = biological target: T1, p300-CH1 (Homo sapiens, UniProt Q09472); experiment: Tryptophan fluorescence binding assay; settings: for Kd: 15N-labeled p300 CH1 domain, Trp403 fluorescence, read-out: dissociation constant, Kd
T1 construct: human p300 CH1 domain (amino acid residues 323-423); GST (cleaved yes); made in house; host or cells: E. coli BL21 (DE3)
Excerpt: The DNA sequence of human p300 CH1 domain ([…]) was designed as an insert and subcloned into a pUC57 plasmid by Genscript, Inc. After transformation of the plasmid in JM109 bacteria (Promega), the gene sequence was subcloned into BamHI and EcoRI restriction sites of pGEX-4T-2 expression vector (Amersham). The pGEX 4T-2-p300 fusion vector was transformed into BL21 (DE3)-competent E. coli (Novagen) in M9 minimal media with ^15NH4Cl as the main nitrogen source. Protein production was induced with 1 mM IPTG at O.D. 600 of 1 for 16 hours at 15° C. Production of the desired p300-CH1-GST fusion product was verified by SDS-PAGE. Bacteria were harvested and resuspended in the lysis buffer with 20 mM Phosphate buffer (Research Products International, Corp.), 100 μM DTT (Fisher), 100 μM ZnSO4 (Sigma), 0.5% TritonX 100 (Sigma), […] Pepstatin A (Research Products International, Corp.), […] Leupeptin A (Research Products International, Corp.), 500 μM PMSF (Sigma), and 0.5% glycerol at pH 8.0. Pellets were lysed by sonication and centrifuged at 4° C., 20,000 rpm, for 20 minutes. Fusion protein was collected from the bacterial supernatant and purified by affinity chromatography using glutathione Sepharose 4B beads (Amersham) prepared according to the manufacturer's directions. GST-tag was cleaved by thrombin and protein was eluted from resin. […] Spectra were recorded on a QuantaMaster 40 spectrofluorometer (Photon Technology International) in a 10 mm quartz fluorometer cell at 25° C. with 4 nm excitation and 4 nm emission slit widths from 200 to 400 nm at intervals of 1 nm/s. Samples were excited at 295 nm and fluorescence emission was measured from 200-400 nm and recorded at 335 nm. Peptide stock solutions were prepared in DMSO. Aliquots containing 1 μL DMSO stocks were added to 400 μL of 1 μM p300-CH1 in 50 mM Tris and 100 mM NaCl (pH 8.0). After each addition, the sample was allowed to equilibrate for 5 minutes before UV analysis. Background absorbance and sample dilution effects were corrected by titrating DMSO into p300-CH1 in an analogous manner. Final fluorescence is reported as the absolute value of [(F1-F0)/F1]*100, where F1 is the final fluorescence upon titration and F0 is the fluorescence of the blank DMSO titration. EC50 values for each peptide were determined by fitting the experimental data to a sigmoidal dose-response nonlinear regression model on GraphPad Prism 5.0, and the dissociation constants, KD, were obtained from equation (1) […] The affinity of peptides for the ^15N-labeled p300 CH1 domain was evaluated using tryptophan fluorescence spectroscopy. […] The binding affinity of HIF-1αC-TAD to CH1 in this assay is consistent with that obtained from a fluorescence polarization assay using fluorescein-labeled HIF-1αC-TAD (FIG. 11 and FIG. 12) and those using isothermal titration microcalorimetry.

HIF-1α = experiment: Western blot analysis of HIF-1α levels; type: cell-based, human; settings: HeLa cells, 10 μM, hypoxia mimicked with DFO 300 μM
Experimental: HeLa cells were plated in a 75 cm^2 culture flask and allowed to reach 70% confluence. Cells were treated with vehicle or HBS 1 at 10 μM concentration in the cell culture media containing 10% FBS. […] Cells were incubated for 6 hours and hypoxia was induced with 300 μM. DFO. After incubation for an additional 18 hours, cells were lysed and cytoplasmic and nuclear extracts were collected using a NE-PER kit (Pierce) according to the manufacturer's protocol and blotted as described in Dubey et al., “Suppression of Tumor Growth by Designed Dimeric Epidithiodiketopiperazine Targeting Hypoxia-Inducible Transcription Factor Complex,” J. Am. Chem. Soc. 135(11):4537-49 (2013), which is hereby incorporated by reference in its entirety.
To exclude the possibility that the observed down-regulation in the expression of hypoxia-inducible genes was due to a change in the levels of HIF-1α protein itself, a western blot analysis of HIF-1α was performed in hypoxic cells treated with HBS 1. […] As expected, the levels of induced HIF-1α protein were unaffected by treatment with HBS 1 (FIG. 16).

[2] = biological target: T2, p300-CH1/Flu-HIF C-TAD complex (Homo sapiens, UniProt Q09472); experiment: Fluorescence polarization competitive inhibition assay; type: binding
T2 construct: human p300 CH1 domain (amino acid residues 323-423); GST (cleaved yes); made in house; host or cells: E. coli BL21 (DE3) for p300-CH1

[3] = system: hypoxia-inducible promoter activity in MDA-MB-231-HRE-Luc cells; experiment: Luciferase-based HRE promoter activity assay; settings: 50 μM, hypoxia by GasPak EZ pouch
Experimental: MDA-MB-231-HRE-Luc cells were grown in high glucose DMEM supplemented with 10% fetal bovine serum and 0.4 g/L geneticin (RPI). Hypoxia was mimicked with desferrioxamine mesylate (DFO, Sigma) at a concentration of 300 μM or by GasPak EZ pouch (BD Biosciences). Cell growth and morphology were monitored by phase-contrast microscopy.
MDA-MB-231-HRE-Luc cells were plated in 24-well plates (BD Falcon) at a seeding density of 35,000 cells/mL. Cells were allowed to adhere and form a monolayer before adding the compounds (˜70% confluence). […] All samples contained a final concentration of 0.1% DMSO; vehicle samples were treated with cell culture media containing 0.1% DMSO. Cells were incubated for 6 hours at 37° C. and 5% CO2 and then hypoxia was induced by placing the cells into GasPak EZ pouch for another 18 hours. The lysates were isolated by using cell culture lysis reagent (Promega). Prior to collecting cell lysate, halt protease inhibitor cocktail (Thermo Scientific) was added to the cell culture lysis reagent in order to ensure the stability of proteins. Cell lysates were collected into low-adhesion pre-chilled Eppendorf tubes (USA Scientific) and centrifuged at 13,000 rpm for 5 minutes at 4° C. Supernatant was collected into another set of pre-chilled Eppendorf tubes and the pellet was discarded. Luciferase assay reagent (100 μL, Promega) was added to 20 μL of cell lysate and luminescence intensity was measured by Turner TD-20e luminometer. The results were normalized to total protein concentration determined by BCA assay. Briefly, 10 μL of cell lysate was added to 200 μL of BCA reagent. Absorbance was measured at 562 nm using a BioTek Synergy 2 microplate reader and normalized to BSA solutions at a concentration range of 125 μg/mL to 2000 μg/mL as standards.

[4] = at conclusion of study, IR-783 imaging

T1 sequence (Q09472 323-423): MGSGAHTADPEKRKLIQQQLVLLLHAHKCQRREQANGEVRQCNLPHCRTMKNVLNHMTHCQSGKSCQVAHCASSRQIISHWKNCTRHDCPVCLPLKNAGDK
T2 sequence (Q09472 323-423, one chain of several): as the sequence (Q09472 323-423) above

Compound	median tumor volume reduction compared to control group ([1]; 13 mg/kg parenterally, 5 injections, 786-O xenograft) [%]	median tumor volume ([1]; 13 mg/kg, 786-O xenograft, volumes measured throughout the study) [mm^3]	NIR signal (IR-783) from the main tumor [1, 4]	NIR signal (IR-783) in lymph nodes, brain or other organs (metastasis) [1, 4]	Kd (p300-CH1) [nM]	increase in binding affinity by stabilization of the peptide conformation (p300-CH1; HBS 1 versus unconstrained peptide 3) [fold]	levels of induced HIF-1α protein (HIF-1α)	Ki [2] [µM]	reduction of luciferase expression [3]	binding affinity relative to HBS 1 (p300-CH1; CH1 domain, compared with HBS 1)	inhibition of the complex on titration ([2]; preformed p300-CH1/Flu-HIF C-TAD complex)
CC(C)C[C@H](NC(=O)[C@H](C)NC(=O)[C@H](CCCNC(=N)N)NC(=O)[C@H](C)N1CC=CCCC(=O)N[C@@H](CCC(=O)O)C(=O)N[C@@H](CC(C)C)C1=O)C(=O)N[C@@H](CC(=O)O)C(=O)N[C@@H](CCC(N)=O)C(N)=O [HBS 1, XELA*RALDQ-NH2]	53	138	significantly reduced signal	no detectable NIR signal	690 ± 25	9	unaffected	3.5 ± 1.2	25%		
CC(C)C[C@@H]1NC(=O)[C@H](CCC(=O)O)NC(=O)CCC=CCN([C@@H](C)C(=O)N[C@@H](CCCNC(=N)N)C(=O)N[C@@H](C)C(=O)N[C@@H](C)C(=O)N[C@@H](CC(=O)O)C(=O)N[C@@H](CCC(N)=O)C(N)=O)C1=O [HBS 2, XELA*RAADQ-NH2]					2820 ± 140				less effective	four-fold weaker	did not lead to reproducible inhibition
